Measurements taken from US20240360179A1, “STAPLED PEPTIDES AND METHODS THEREOF” (FOG PHARMACEUTICALS, INC., priority 2021, published 2024).

What was measured:
[1] = target: T1, beta-catenin/TCF4 interaction (Homo sapiens, UniProt P35222); assay: Co-immunoprecipitation of endogenous beta-catenin in DLD1 cells; format: cell-based
T1 construct: endogenous in cells; host or cells: DLD1
T1 sequence (P35222 2-781 limits assumed): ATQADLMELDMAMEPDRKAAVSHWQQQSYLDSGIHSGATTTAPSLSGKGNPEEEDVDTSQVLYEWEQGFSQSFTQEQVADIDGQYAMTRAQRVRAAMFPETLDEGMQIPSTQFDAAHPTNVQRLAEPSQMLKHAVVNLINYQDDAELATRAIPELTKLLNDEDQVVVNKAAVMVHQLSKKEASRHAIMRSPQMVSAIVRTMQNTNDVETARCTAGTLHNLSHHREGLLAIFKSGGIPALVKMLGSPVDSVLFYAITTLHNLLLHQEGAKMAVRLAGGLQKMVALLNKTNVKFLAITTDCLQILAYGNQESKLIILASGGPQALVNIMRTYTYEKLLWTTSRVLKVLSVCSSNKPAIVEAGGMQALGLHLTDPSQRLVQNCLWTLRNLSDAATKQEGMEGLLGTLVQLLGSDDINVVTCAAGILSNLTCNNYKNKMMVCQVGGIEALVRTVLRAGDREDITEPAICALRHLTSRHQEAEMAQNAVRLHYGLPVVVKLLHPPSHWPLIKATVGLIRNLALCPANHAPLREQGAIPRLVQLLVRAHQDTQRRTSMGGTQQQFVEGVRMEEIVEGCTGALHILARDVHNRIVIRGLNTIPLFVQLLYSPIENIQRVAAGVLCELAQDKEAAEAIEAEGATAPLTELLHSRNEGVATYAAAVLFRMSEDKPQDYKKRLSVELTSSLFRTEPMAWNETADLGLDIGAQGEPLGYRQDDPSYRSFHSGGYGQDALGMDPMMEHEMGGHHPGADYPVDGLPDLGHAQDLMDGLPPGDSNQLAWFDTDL
Experimental: Co-Immunoprecipitation. […] In some embodiments, for co-IP experiments, DLD1 cells were treated with compounds for a period of time, e.g., 4 hours. […] Briefly, 30 μL of protein A/G magnetic beads were added to each lysate and incubated for 1 hr at room temperature.

[2] = Mouse plasma pharmacokinetics (IV, IP); format: in vivo; conditions: single intraperitoneal (IP) dose at 100 mg/kg
Experimental: Concentrations of agents in biological samples were measured by LC-MS/MS (Triple Quad 6500+). […] 8 uL of plasma or tissue lysate was used for LC method with mobile phase A (1% formic acid (FA, LS118-4, Fisher Scientific) in H2O) and mobile phase B (0.1% FA in ACN), 0.6 ml/min flow rate in Waters ACQUITY UPLC BEH C18 2.1*50 mm, 1.7 μm column. […] MS was conducted by electrospray ionization and multi reaction monitor scans. PK parameters such as plasma maximum concentration (Cmax), and AUC were analyzed by noncompartmental model 200 of Phoenix WinNonlin 8.3, using the linear/log trapezoidal method.
In some embodiments, concentrations of compounds, e.g., stapled peptides, in biological samples were measured by LC-MS/MS (Triple Quad 6500+). […] 8 uL of plasma or tissue lysate was used for LC method with mobile phase A (1% formic acid (FA, LS118-4, Fisher Scientific) in H2O) mobile phase B (0.1% FA in ACN), 0.6 ml/min flowrate in Waters ACQUITY UPLC BEH C18 2.1*50 mm, 1.7 um column. […] In some embodiments, MS was conducted by electrospray ionization and multi reaction monitor scans. In some embodiments, PK parameters such as plasma maximum concentration (Cmax), and AUC were analyzed by noncompartmental model 200 of Phoenix WinNonlin 8.3, using the linear/log trapezoidal method.

Ac-PL3-Glu-Npg-B5-Glu-3COOHF-Aib-Ala-Phe-Lys*3-PyrS2-3Thi-BztA-GlnR*3-Ala-NH2 [I-470]
beta-catenin/TCF4 interaction by co-IP and Western blotting [1]: not
plasma AUC [2]: comparable
